Structures can show the parent of a compound that is named as a salt.
How the values were obtained:
stomach (mucosal damage) = assay: In vivo ulcerogenicity study in rats; parameters: species or system male Sprauge-Dawley rats; conditions: for number of lesions / ulcer score: single equimolar dose (diclofenac sodium 100 mg/kg, prodrug 140 mg/kg); for number of lesions: average, for the prodrug punctiform lesions; for ulcer score: sacrificed after 17 h
Description: The ulceroginicity of diclofenac sodium and its prepared prodrug 2 were evaluated. Three groups (six animals each) of male Sprauge-Dawley rats (150–200 gm) were fasted for 8 h prior to administration of single equimolar doses of diclofenac sodium (100 mg/kg), its prodrug (140 mg/kg), or vehicle. Free access to food and water were provided throughout the experiment. […] The stomach of the rats was dissected out of the body, and stomach content was emptied and washed with saline. The stomach was then opened and wiped with a clean swap dipped in saline. The degree of mucosal damage was assessed using a 4× binocular magnifier. The severity of the damage was assessed according to a scoring system where the presence of <5 punctiforms with no ulcers was given the score of zero. A punctiform was defined as a lesion of less than 1 mm. If >5 punctiforms were present with no ulcer, a score of 1 was given. If 1–5 small ulcers (1–2 mm in diameter) were observed, a score of 2 was given. If >5 small ulcers or one large ulcer (>2 mm in diameter) was present, a score of […] was given. If >1 large ulcer was observed, a score of 4 was given. The scores were averaged and the mean score was tabulated as ulcerogenicity index for the drugs under investigation.

[1] = Hydrolysis kinetics in human plasma; type: in vitro ADME; conditions: 37 ± 0.3 °C
Description: (§1) The HPLC analysis was performed using LaChrom Merck Hitachi system that consists of a D-7000 interface, L-7200 diode array detector, pump L-7150 and D-7000HSM software (Schaumburg, IL, USA). The UV detector was set at 280 nm wave length. The HPLC column was an Agela unisol-C18, 5 micron 4.6 × 150. Mobile phase was 80% methanol, 20% water. To each litre, 2 mL acetic acid were added. The mobile phase was pumped at flow rate 1.5 mL/min. The retention times were: 5.17 min 6.19 min and 7.15 min for 2-hydroxyethyldiclofenac, diclofenac sodium and the morpholine prodrug, respectively (Figure 2). The analytical method was fully validated.
The prodrug under investigations was incubated in human plasma using a shaking water bath, which was set at 37 ± 0.3 °C. An amount of 25 µL of 1.0 mg/mL stock solution of the prodrug under investigation was added to 5 mL of the incubated plasma. At appropriate time points, samples of 100 μL were withdrawn and deproteinized by adding equal volumes of acetonitrile. The formed mixture was mixed on a vortex then centrifuge at 2,500 rpm for 10 min. The clear supernatant was analyzed using the HPLC method.

[2] = Hydrolysis kinetics in aqueous buffer solution; type: physicochemical; conditions: about 37 °C
Description: as §1
The prodrug under investigation was incubated in 0.1 N HCl (pH 1.0) and phosphate buffer (pH 7.4). The formed solutions were kept in a shaking water bath at about 37 °C for eight h. At appropriate intervals, samples (100 µL) were analyzed using the HPLC method described earlier.

| half-life at 5 µg/mL [1] | half-life ([2]; pH 1 (0.1 N HCl)) | half-life ([2]; pH 7.4 (phosphate buffer)) | SMILES | lesions larger than 2 mm (stomach (mucosal damage); single dose diclofenac sodium 100 mg/kg, 17 h) | number of lesions (stomach (mucosal damage); 17 h) | ulcer score (stomach (mucosal damage)) |
| --- | --- | --- | --- | --- | --- | --- |
| – | – | – | O=C(O)Cc1ccccc1Nc1c(Cl)cccc1Cl [Compound 1, 2-[(2,6-dichloro-phenyl])amino]benzeneacetic acid sodium salt] | six | 82 | four |
| 0.35 h | 8 h | 47 h | O=C(Cc1ccccc1Nc1c(Cl)cccc1Cl)OCCOC(=O)N1CCOCC1 [Compound 2] | – | less than five | zero |
